Reference: patent publication US20240148645A1, “NON-NANOPARTICULATE APPLICATION FORMS OF MACROLIDES” (Nucleus Medical GmbH, priority 2021, published 2024)
≈ marks a conversion by molar mass, not a printed value.

Columns and labels:
[1] = Saturation solubility of tacrolimus in different solvents; type: physicochemical; conditions: for solubility: thermodynamic from solid, room temperature
Experimental: Tacrolimus was dissolved in an organic solvent. Particularly, the saturation solubility of tacrolimus in different organic solvents was tested. Crystalline active ingredient was added to a defined amount of solvent at room temperature while stirring until an insoluble sediment was formed. After filtration, the concentration of active ingredient was quantified by HPLC in the supernatant.

[2] = low solubility and high permeability; cited from earlier work

Solubility in tested organic solvents [1]: soluble in all tested organic solvents
solubility ([1]; organic solvent or mixture, Acetic Acid): 545 mg/mL (≈ 678 mM)
solubility ([1]; organic solvent or mixture, DMSO): 582 mg/mL (≈ 724 mM)
solubility ([1]; organic solvent or mixture, Ethanol): 389 mg/mL (≈ 484 mM)
solubility ([1]; organic solvent or mixture, iso-Propanol): 243 mg/mL (≈ 302 mM)
solubility ([1]; Water): 0.00076 mg/mL (≈ 0.000945 mM)
SMILES: C=CC[C@@H]1/C=C(\C)C[C@H](C)C[C@H](OC)[C@H]2O[C@@](O)(C(=O)C(=O)N3CCCC[C@H]3C(=O)O[C@H](/C(C)=C/[C@@H]3CC[C@@H](O)[C@H](OC)C3)[C@H](C)[C@@H](O)CC1=O)[C@H](C)C[C@@H]2OC [Tacrolimus]
BCS class [2]: BCS class II
